Experimental data from US10781188B2, “Contrast agents” (BRACCO IMAGING S.P.A., priority 2015, dated 2020).

How the values were obtained:
[1] = Relaxivity r1p in human plasma, 37° C.; format: physicochemical; conditions: for r1p at 0.47 T 37° C., human plasma: 0.47 T (20 MHz); for r1p at 1.41 T 37° C., human plasma: 1.41 T (60 MHz)
Description: (§1) The relaxometric properties of some representative complex compounds according to the invention have been determined at different magnetic field strengths, e.g. including 0.47 and 1.41 T, at 37° C. and in different media (physiologic solution and human plasma) and compared with relaxivity values measured, at the same conditions, for some Gd-Complex of the market having an analogous cyclic coordination cage.
(§2) The longitudinal water proton relaxation rate (R1=1/T1) was measured at 0.47 T with a Minispec MQ-20 spectrometer (Bruker Biospin, Germany) operating at a proton Larmor frequency of 20 MHz; MR experiments at 1.41 T were performed using a Minispec MQ-60 spectrometer (Bruker Biospin, Germany) operating at a proton Larmor frequency of 60 MHz.
(§3) All test articles were used as supplied and diluted in the selected medium (physiologic solution or human plasma) by weighting the required amount of paramagnetic chelated complex to get a 5 or 10 mM starting solution.
(§4) Five different concentration samples (0.1, 0.25, 0.5, 0.75 and 1 mM) for each medium have been prepared by further dilution of the starting 5 or 10 mM solution.
(§5) Relaxivity measurements were performed at 0.47 T and 1.41 T at a preset temperature sample of 37° C., kept constant by means of a thermostatic bath connected to the sample holder of the spectrometer. The five sample solutions have been preliminary pre-heated at 37° C. in an external thermostatic bath and then left 10 minutes inside the internal bath to assure the stabilization of the temperature. Longitudinal relaxation time T1 was measured by means of a standard inversion recovery sequence, where the inversion time (TI) was varied from 10 ms to at least 5 times T1 in 15 steps. Statistical analysis (mono-exponential fitting for T1 measurement, linear fitting for the evaluation of longitudinal relaxivity) was performed by Mathematica® (Wolfram, USA). Errors on the estimated parameters were evaluated by the fitting procedure.

[2] = Relaxivity r1p in physiologic solution (saline), 37° C.; format: physicochemical; conditions: for r1p at 0.47 T 37° C., saline: 0.47 T (20 MHz); for r1p at 1.41 T 37° C., saline: 1.41 T (60 MHz)
Description: as §1, §2, §3, §4, §5

| r1p at 0.47 T 37° C., human plasma [1] | r1p at 1.41 T 37° C., human plasma [1] | r1p at 0.47 T 37° C., saline [2] | r1p at 1.41 T 37° C., saline [2] | SMILES |
| --- | --- | --- | --- | --- |
| 8.5 mM⁻¹ s⁻¹ | 7.5 mM⁻¹ s⁻¹ | 7.0 mM⁻¹ s⁻¹ | 6.5 mM⁻¹ s⁻¹ | O=C(O)CN1CCN(CC(=O)O)CCN(CC(O)CNCP(=O)(O)O)CCN(CC(=O)O)CC1 (centres unmarked) [Chelate Complex 2] |
| 9.6 mM⁻¹ s⁻¹ | 8.9 mM⁻¹ s⁻¹ | 7.7 mM⁻¹ s⁻¹ | 7.7 mM⁻¹ s⁻¹ | O=C(O)CN1CCN(CC(=O)O)CCN(CC(O)CN2CC(CO)(CO)C(O)C(CO)(CO)C2)CCN(CC(=O)O)CC1 (centres unmarked) [Chelate Complex 5] |
| 6.25 mM⁻¹ s⁻¹ | 5.3 mM⁻¹ s⁻¹ | 4.3 mM⁻¹ s⁻¹ | 3.8 mM⁻¹ s⁻¹ | NCC(O)CN1CCN(CC(=O)O)CCN(CC(=O)O)CCN(CC(=O)O)CC1 (centres unmarked) [Comparative 1, reference compound] |
| 7.5 mM⁻¹ s⁻¹ | 7.1 mM⁻¹ s⁻¹ | 5.8 mM⁻¹ s⁻¹ | 5.9 mM⁻¹ s⁻¹ | O=C(O)CN1CCN(CC(=O)O)CCN(CC(O)CN(CC(=O)O)C(CO)CO)CCN(CC(=O)O)CC1 (centres unmarked) [Chelate Complex 13] |
| 9.1 mM⁻¹ s⁻¹ | 8.05 mM⁻¹ s⁻¹ | 6.5 mM⁻¹ s⁻¹ | 6.1 mM⁻¹ s⁻¹ | O=C(O)CN1CCN(CC(=O)O)CCN(CC(O)CN(CC(=O)O)C2CCCCC2)CCN(CC(=O)O)CC1 (centres unmarked) [Chelate Complex 19] |
| 8.8 mM⁻¹ s⁻¹ | 8.0 mM⁻¹ s⁻¹ | 6.9 mM⁻¹ s⁻¹ | 6.5 mM⁻¹ s⁻¹ | O=C(O)CN1CCN(CC(=O)O)CCN(CC(O)CN(CCOCCO)CCOCCO)CCN(CC(=O)O)CC1 (centres unmarked) [Chelate Complex 14] |
| 4.5 mM⁻¹ s⁻¹ | 3.6 mM⁻¹ s⁻¹ | 3.6 mM⁻¹ s⁻¹ | 3.2 mM⁻¹ s⁻¹ | O=C(O)CN1CCN(CC(=O)O)CCN(CC(=O)O)CCN(CC(=O)O)CC1 [Doratem ®, Gd-DOTA, reference compound] |
| 8.5 mM⁻¹ s⁻¹ | 8.3 mM⁻¹ s⁻¹ | 6.1 mM⁻¹ s⁻¹ | 6.1 mM⁻¹ s⁻¹ | CN(CC(O)CN1CCN(CC(=O)O)CCN(CC(=O)O)CCN(CC(=O)O)CC1)CC(O)C(O)C(O)C(O)CO (centres unmarked) [Chelate Complex 21] |

| SMILES | r1p at 0.47 T 37° C., human plasma [1] | r1p at 1.41 T 37° C., human plasma [1] | r1p at 0.47 T 37° C., saline [2] | r1p at 1.41 T 37° C., saline [2] |
| --- | --- | --- | --- | --- |
| CCOP(=O)(O)CN(Cc1ccccc1)CC(O)CN1CCN(CC(=O)O)CCN(CC(=O)O)CCN(CC(=O)O)CC1 (centres unmarked) [Chelate Complex 8] | 10.2 mM⁻¹ s⁻¹ | 9.0 mM⁻¹ s⁻¹ | 7.4 mM⁻¹ s⁻¹ | 7.3 mM⁻¹ s⁻¹ |
| CC(O)CN1CCN(CC(=O)O)CCN(CC(=O)O)CCN(CC(=O)O)CC1 (centres unmarked) [ProHance ®, Gd-HPDO3A, reference compound] | 4.9 mM⁻¹ s⁻¹ | 4.15 mM⁻¹ s⁻¹ | 3.5 mM⁻¹ s⁻¹ | 3.1 mM⁻¹ s⁻¹ |
| O=C([O-])CN1CCN(CC(=O)O)CCN(CC(=O)O)CCN(CC(O)CNC(CCc2ccccc2)P(=O)(O)[O+]=[Na])CC1 (centres unmarked) [Chelate Complex 6] | 13.8 mM⁻¹ s⁻¹ | 11.9 mM⁻¹ s⁻¹ | 8.3 mM⁻¹ s⁻¹ | 8.2 mM⁻¹ s⁻¹ |
